The values below come from patent US20120190707A1, “SELECTIVE INHIBITORS OF AKT AND METHODS OF USING SAME” (priority 2008, published 2012).

One test relates to NRAS/Ink4a mice. In words: Melanoma development in NRAS/Ink4a mice. In kind it is in vivo. As for the experimental part:
The NRAS/Ink4a mice harbor a Q61K NRAS activating mutation, as is seen in 15% of human melanomas, on an Ink4a-deficient background, which mimics the mutations often seen in this locus (p16) in human melanoma.
The NRAS/Ink4a mouse develops melanoma with penetrance of about 25-50% which is often accompanied by metastasis to the lymph nodes.
To examine the effect of BI-69A11 treatment on in vivo melanoma development, BI-69A11 was administered to a cohort of 30 mice twice per week (IP, 0.5 mg/kg), starting at week 28 after NRAS expression. A control group of 30 mice received the control vehicle formulation. In this model, by 28 weeks many mice already developed melanoma. Those were not included in our study which was restricted to animals that have not yet developed melanoma. Nevertheless, in a clinical setting, preventive treatment could be administered prior to tumor development, at a stage where early stages of development had been initiated.
NRAS expression was induced in NRAS/INK4a mice (time 0) and the mice were maintained for 40 weeks. Starting at 28 weeks, animals received BI-69A11 at 0.5 mg/kg by IP injection twice weekly.
NRAS expression was induced in NRAS/INK4a mice and 28 weeks later treatment with BI-69A11 was initiated. Internal tumors developed in this model were fibrosarcomas, whereas the skin tumors were melanomas (confirmed by immunostaining with S100 and DCT).
An additional experimental group included animals from the same melanoma model, albeit, those were treated earlier (after 10 weeks rather than 28).

The test system of the next test is PRAS40. The experiment in a line: PRAS40 phosphorylation by western analysis in UACC903 cells. In kind it is cell-based, human. The note with it: UACC903, 10.micro.M. As for the experimental part:
FIG. 6 describes the effect of BI-69A11 on phosphorylation and total levels of AKT in UACC 903 (PTEN−) cells. (A) UACC903 and the modified clone 29-1 (PTEN+) cells were exposed to 10 micro.M BI-69A11 and 50 micro.M LY294002 (a PI3K inhibitor) and the levels of pAKT473 and total AKT determined by western analysis. […] (SF=Serum Free). (B) BI-69A11 inhibits PRAS40 phosphorylation. UACC903 melanoma cells or 29-1 cells (PTEN+) were subjected to treatment with IGF-1 (20 ng/mL) and the level of PRAS40 phosphorylation was assessed. […] The cells were collected, lysed and levels of pPRAS40 and total PRAS40 determined by western analysis. (C) AKT association with HSP90 is inhibited by BI-69A11. Human melanoma cells were treated with BI-69A11 (10.micro.M) or DMSO control for 4 h, followed by protein preparation and immunoprecipitation using antibodies to pan-AKT. MG132 treatment, when used, initiated 1 h prior to treatment and lasted up to the preparation of proteins (total of 5 h). The right panel depicts analysis of total lysates.
Thus, we set to test the possibility that BI-69A11's ability to inhibit AKT activity may stem from inhibition of AKT protein expression (see data below). We thus assessed whether inhibition of AKT Ser473 phosphorylation coincides with its activity, namely the phosphorylation of known AKT substrates. […]

Another test relates to MeWo melanoma cells. The experiment in a line: Cell death by trypan blue staining, MeWo. In kind it is cell-based. As for the experimental part:
(§1) (A) MeWo melanoma cells growing in 60 mm plates were treated with the indicated concentration of the inhibitor for 4 h before proteins were prepared for western blot analysis using the indicated antibodies. Level of beta.actin was monitored as a control for protein loading. (B) Experiment was performed as indicated in panel A, except that cells were harvested after 24 h for analysis of cell death using trypan blue staining. (C) Melanoma (MeWo), prostate cancer (PC3) and breast cancer (MCF7) cells were treated with BI-69A11 at the indicated concentrations; levels of AKT phosphorylation or expression were assessed 4 h later. The level of beta.actin used as a control for protein loading. (D) Experiment was performed as indicated in panel C, except that cells were harvested after 4 h for analysis of cell death using trypan blue staining.
(§2) To evaluate the effectiveness of BI-69A11 on melanoma cells we assessed the effect of different concentrations on AKT phosphorylation in MeWO cells.
For the proliferation assays, cells were treated as described above. However, instead of scraping cells into the serum-free medium, floating cells were collected in a 15 mL centrifuge tube whereas adherent cells trypsinized gently. The total cell population was pooled and counted on a hemocytometer after staining with Trypan Blue.

The subject of another test is AKT. In words: AKT phosphorylation and expression by western blot in MeWo melanoma cells. In kind it is cell-based. Here is the method:
as §1, §2
For western blotting techniques, cells were lysed in RIPA buffer containing 50 mM TrisHCl pH7.4, 150 mM NaCl, 2 mM EDTA, 1% NP-40, 0.1% SDS. The protein concentration was estimated using the Coomassie Protein assay kit (Thermo Scientific, Rockford, Ill., USA). Equal concentrations of cell lysate (30-50 ug) were resolved on a 10% polyacrylamide gel and transferred onto Nitrocellulose membrane (GE Amersham). Membranes were blocked for 1-2 hours in either 3% BSA or 5% nonfat dried milk in Tris-buffered saline containing 0.05% Tween 20. Primary antibody incubations were performed overnight at 4° C. with shaking. The blots were washed followed by incubation with a secondary antibody incubation for 1 hour at room temperature. After washing, the blots were scanned on the Odyssey Licor scanner at the appropriate wavelength and the image was captured using the Odyssey software.
On the technique in general: A western blot detects proteins with antibodies after separation by electrophoresis.

In a further test the test system is c-Jun. The experiment in a line: Levels of HSP90 client protein c-Jun. Type of test: cell-based. The note with it: data not shown. The text has this: Among cellular proteins implicated in the regulation of AKT levels is the cellular chaperone HSP90. Inhibition of HSP90 chaperone function, as commonly achieved by the geldanamycin antibiotic, interferes with the conformational maturation and refolding of its associated proteins, thereby promoting their degradation (Munster et al., 2002; Neckers and Neckers, 2003). […] Thus we assessed whether association of AKT with HSP90 could be affected by BI-69A11. Immunoprecipitation of AKT from melanoma cells identified HSP90 in the immunoprecipitated material. Such association was however abolished following treatment with the BI-69A11 inhibitor (FIG. 6C). […] To this end, we also performed the experiment in the presence of the proteasome inhibitor MG132.

[1] abbreviates: IP 0.5 mg/kg twice per week from week 28.

Consider `O=C(/C=C/c1nc2ccccc2[nH]1)c1c(O)nc2ccc(Cl)cc2c1-c1ccccc1` [Compound 2, (E)-3-(3-(1H-benzo[d]imidazol-2-yl)acryloyl)-6-chloro-4-phenylquinolin-2(1H)-one], for which, in the test on NRAS/Ink4a mice (setting [1]), the “inhibition in the fibrosarcoma group” value was around 50%, the inhibition of melanomas is listed as around 68% and the “share of the 25 melanomas that developed in the treated group” value is 32%. The “total number of tumors developed” value in the test on NRAS/Ink4a mice (IP 0.5 mg/kg twice per week from week 28, up to 40 weeks, 30 tumors in control group) is recorded as 19. The number of melanomas with NRAS/Ink4a mice (IP 0.5 mg/kg twice per week from week 28, control 17) turned out to be 8. In addition, in the test with NRAS/Ink4a mice (mouse, in vivo), the “prevention with administration after 10 weeks compared with after 28 weeks” value is “as effective as”. The “phosphorylation of PRAS40” value in the test on PRAS40 is recorded as “markedly inhibited”. Besides, the cell death result in the test on MeWo melanoma cells (3 micro.M, within 24 hours) is on record as “about 60%”. For the same compound, the cell death result in the test on MeWo melanoma cells (5 micro.M, within 4 hours) is reported as “about 25%”. Further, the “AKT phosphorylation on S473” value in the test on AKT (3 micro.M, 4 h) is on record as “partial inhibition”. Also, the AKT protein levels entry with AKT (5 and 10 micro.M) was “reduced levels of AKT protein”. Besides, the “basal level of AKT phosphorylation” value in the test on AKT (5 and 10 micro.M, 4 h) was “effectively inhibited”. Also, the AKT phosphorylation result in the test with AKT (low doses (<0.3 micro.M), 4 h) is listed as “did not affect”. Also, the c-Jun protein levels entry in the test with c-Jun is “did not affect”.
